The experiment addresses T1, human Cot/Tpl2 kinase (Homo sapiens, UniProt P41279).
T1 construct: human Cot/Tpl2 kinase construct encoding residues 30-398; 6His (N); made in house; host or cells: Sf9 insect cells, baculovirus system (BD Biosciences)
Description: Tpl2/Cot kinase assay: GST-MEK1 phosphorylation detected by ELISA (DELFIA Eu). Format: biochemical. To be noted: 0.4 nM Tpl2, 35 nM GST-MEK1, 50 uM ATP, 1 h at 30° C. An outline of the steps:
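His-tagged human Tpl2 from Sf9 cells, Ni-affinity and size-exclusion purified (monomer). 0.4 nM Tpl2 with 35 nM GST-MEK1, 50 uM ATP, MOPS pH 7.2, 1% DMSO, 1 h at 30° C; EDTA stop. MEK1 Ser217/221 phosphorylation detected by anti-phospho-MEK1 and Eu-labelled secondary ELISA; IC50 fitted.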
Background: An ELISA detects its analyte on a solid surface through an enzyme-linked reagent.
T1 sequence (P41279 30-398): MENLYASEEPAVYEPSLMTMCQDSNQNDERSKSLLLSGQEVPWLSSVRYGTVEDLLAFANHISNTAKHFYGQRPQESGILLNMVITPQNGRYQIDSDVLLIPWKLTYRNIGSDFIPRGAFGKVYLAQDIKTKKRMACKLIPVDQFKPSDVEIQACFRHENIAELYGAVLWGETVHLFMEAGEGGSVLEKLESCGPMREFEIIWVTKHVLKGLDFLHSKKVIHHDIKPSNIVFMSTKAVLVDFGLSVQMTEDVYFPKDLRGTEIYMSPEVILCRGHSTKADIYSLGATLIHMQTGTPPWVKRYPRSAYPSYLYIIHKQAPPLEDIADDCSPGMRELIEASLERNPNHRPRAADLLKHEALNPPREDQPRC
As a reminder, the IC50 is the concentration needed to halve the response being measured. A high value points to weaker potency. `CN(C)CCSc1cc2ncc(C#N)c(Nc3ccc(F)c(Cl)c3)c2cc1NCc1cnc[nH]1` [Example 163, 6-((1H-imidazol-5-yl)methylamino)-4-(3-chloro-4-fluorophenylamino)-7-(2-(dimethylamino)ethylthio)quinoline-3-carbonitrile] showed a 50% inhibitory concentration (IC50) of 150 nM.
As for `CN(C)CCN1CCN(c2cc3ncc(C#N)c(Nc4ccc(F)c(Cl)c4)c3cc2NCc2cnc[nH]2)CC1` [Example 164, 6-((1H-imidazol-5-yl)methylamino)-4-(3-chloro-4-fluorophenylamino)-7-(4-(2-(dimethylamino)ethyl)piperazin-1-yl)quinoline-3-carbonitrile], the IC50 was > 40000 nM.
Take `CCOc1cc2ncc(C#N)c(Nc3ccc(F)c(Cl)c3)c2cc1NCc1cnc[nH]1` [Example 165, 6-((1H-imidazol-5-yl)methylamino)-4-(3-chloro-4-fluorophenylamino)-7-ethoxyquinoline-3-carbonitrile]: the IC50 was > 40000 nM.
As for `N#Cc1cnc2cc(OCCBr)c(NCc3cnc[nH]3)cc2c1Nc1ccc(F)c(Cl)c1` [Example 166, 6-((1H-imidazol-5-yl)methylamino)-7-(2-bromoethoxy)-4-(3-chloro-4-fluorophenylamino)quinoline-3-carbonitrile], the IC50 is > 40000 nM.
`CS(=O)(=O)c1cccc(CNc2ccc3ncc(C#N)c(Nc4ccc(F)c(Cl)c4)c3c2)c1` [Example 167, 6-(3-(methylsulfonyl)benzylamino)-4-(3-chloro-4-fluorophenylamino)quinoline-3-carbonitrile] had an IC50 of 28 nM.
On to `N#Cc1cnc2ccc(NCc3cccc(S(N)(=O)=O)c3)cc2c1Nc1ccc(F)c(Cl)c1` [Example 168, 3-((4-(3-chloro-4-fluorophenylamino)-3-cyanoquinolin-6-ylamino)methyl)benzenesulfonamide], for which the IC50 amounted to 150 nM.
The same measure for `N#Cc1cnc2ccc(NCc3cnc[nH]3)cc2c1Nc1cccc(Br)c1` [Example 169, 6-((1H-imidazol-5-yl)methylamino)-4-(3-bromophenylamino)quinoline-3-carbonitrile]: 21 nM; for `N#Cc1cnc2c(Br)cc(NCc3nn[nH]c3-c3ccc(F)cc3)cc2c1Nc1ccc(F)c(Cl)c1` [Example 170, 8-bromo-4-[(3-chloro-4-fluorophenyl)amino]-6-({[5-(4-fluorophenyl)-1H-1,2,3-triazol-4-yl]methyl}amino)quinoline-3-carbonitrile]: 680 nM.
`Cn1ccnc1CNc1ccc2ncc(C#N)c(Nc3ccc(F)c(Cl)c3)c2c1` [Example 171, 4-(3-chloro-4-fluorophenylamino)-6-((1-methyl-1H-imidazol-2-yl)methylamino)quinoline-3-carbonitrile] yielded an IC50 of 14 nM.
The same measure for `C[C@@H](Nc1ccc2ncc(C#N)c(Nc3ccc(F)c(Cl)c3)c2c1)c1ccccn1` [Example 172, (R)-4-(3-chloro-4-fluorophenylamino)-6-(1-(pyridin-2-yl)ethylamino)quinoline-3-carbonitrile]: 84 nM; for `C[C@H](Nc1ccc2ncc(C#N)c(Nc3ccc(F)c(Cl)c3)c2c1)c1ccccn1` [Example 173, (S)-4-(3-chloro-4-fluorophenylamino)-6-(1-(pyridin-2-yl)ethylamino)quinoline-3-carbonitrile]: > 40000 nM; for `CCOC(=O)CNc1ccc2ncc(C#N)c(Nc3ccc(F)c(Cl)c3)c2c1` [Example 174, Ethyl 2-(4-(3-chloro-4-fluorophenylamino)-3-cyanoquinolin-6-ylamino)acetate]: 3500 nM.
`N#Cc1cnc2ccc(NCC(=O)O)cc2c1Nc1ccc(F)c(Cl)c1` [Example 175, 2-(4-(3-chloro-4-fluorophenylamino)-3-cyanoquinolin-6-ylamino)acetic acid] gave an IC50 of 310 nM.
For the compound `N#Cc1cnc2ccc(NCC(N)=O)cc2c1Nc1ccc(F)c(Cl)c1` [Example 176, 2-(4-(3-chloro-4-fluorophenylamino)-3-cyanoquinolin-6-ylamino)acetamide], the IC50 worked out at 4300 nM.
As for `N#Cc1cnc2c(Cl)cc(NCc3cnc[nH]3)cc2c1Nc1ccc(F)c(Cl)c1` [Example 177, 6-((1H-imidazol-5-yl)methylamino)-8-chloro-4-(3-chloro-4-fluorophenylamino)quinoline-3-carbonitrile], it took 10 nM to reach half-maximal inhibition (IC50).
As for `N#Cc1cnc2c(Cl)cc(NCc3cccnc3)cc2c1Nc1ccc(F)c(Cl)c1` [Example 178, 8-chloro-4-(3-chloro-4-fluorophenylamino)-6-(pyridin-3-ylmethylamino)quinoline-3-carbonitrile], the IC50 was found to be 16 nM.
The same measure for `CC(Nc1ccc2ncc(C#N)c(Nc3ccc(F)c(Cl)c3)c2c1)c1cnc[nH]1` (centres unmarked) [Example 179, 6-(1-(1H-imidazol-5-yl)ethylamino)-4-(3-chloro-4-fluorophenylamino)quinoline-3-carbonitrile]: 3900 nM; for `CC(C)(C)S(=O)(=O)Nc1c(C#N)cnc2ccc(NCc3cnc[nH]3)cc12` [Example 180, N-(6-((1H-imidazol-5-yl)methylamino)-3-cyanoquinolin-4-yl)-2-methylpropane-2-sulfonamide]: > 40000 nM.
On to `N#Cc1cnc2c(O)cc(NCc3cnc[nH]3)cc2c1Nc1ccc(F)c(Cl)c1` [Example 181, 6-((1H-imidazol-5-yl)methylamino)-4-(3-chloro-4-fluorophenylamino) 8-hydroxyquinoline-3-carbonitrile], for which the IC50 was 11300 nM.
Take `N#Cc1cnc2c(Cl)cc(NCc3cccc[n+]3[O-])cc2c1Nc1ccc(F)c(Cl)c1` [Example 182, 8-chloro-4-[(3-chloro-4-fluorophenyl)amino]-6-{[(1-oxidopyridin-2-yl)methyl]amino}quinoline-3-carbonitrile]: the IC50 was 18 nM.
For `Cc1c(CNc2cc(Cl)c3ncc(C#N)c(Nc4ccc(F)c(Cl)c4)c3c2)ncn1C` [Example 183, 8-chloro-4-(3-chloro-4-fluorophenylamino)-6-((1,5-dimethyl-1H-imidazol-4-yl)methylamino)quinoline-3-carbonitrile], the IC50 is 22 nM.
In turn, `CS(=O)(=O)c1ccc(CNc2cc(Cl)c3ncc(C#N)c(Nc4ccc(F)c(Cl)c4)c3c2)cc1` [Example 184, 6-(4-(methylsulfonyl)benzylamino)-8-chloro-4-(3-chloro-4-fluorophenylamino)quinoline-3-carbonitrile] came in with a concentration for half-maximal inhibition (IC50) of 110 nM.
`CS(=O)(=O)c1cccc(CNc2cc(Cl)c3ncc(C#N)c(Nc4ccc(F)c(Cl)c4)c3c2)c1` [Example 185, 6-(3-(methylsulfonyl)benzylamino)-8-chloro-4-(3-chloro-4-fluorophenylamino)quinoline-3-carbonitrile] showed an IC50 of 47 nM.
Take `N#Cc1cnc2c(Cl)cc(NCc3ccc(S(N)(=O)=O)cc3)cc2c1Nc1ccc(F)c(Cl)c1` [Example 186, 4-((8-chloro-4-(3-chloro-4-fluorophenylamino)-3-cyanoquinolin-6-ylamino)methyl)benzenesulfonamide]: the half-inhibitory concentration (IC50) was found to be 45 nM.
Regarding `N#Cc1cnc2c(Cl)cc(NCc3cn4ccccc4n3)cc2c1Nc1ccc(F)c(Cl)c1` [Example 187, 6-((H-imidazo[1,2-a]pyridin-2-yl)methylamino)-8-chloro-4-(3-chloro-4-fluorophenylamino)quinoline-3-carbonitrile], the IC50 amounted to 130 nM.
Regarding `N#Cc1cnc2c(Cl)cc(NCc3cc4n(n3)CCO4)cc2c1Nc1ccc(F)c(Cl)c1` [Example 188, 8-chloro-4-(3-chloro-4-fluorophenylamino)-6-((2,3-dihydropyrazolo[5,1-b]oxazol-6-yl)methylamino)quinoline-3-carbonitrile], the 50% inhibitory concentration (IC50) was 59 nM.
On to `N#Cc1cnc2c(Cl)cc(NCc3cc4n(n3)CCC4)cc2c1Nc1ccc(F)c(Cl)c1` [Example 189, 8-chloro-4-(3-chloro-4-fluorophenylamino)-6-((5,6-dihydro-4H-pyrrolo[1,2-b]pyrazol-2-yl)methylamino)quinoline-3-carbonitrile], for which the IC50 amounted to 100 nM.
The same measure for `CCc1nc(CNc2cc(Cl)c3ncc(C#N)c(Nc4ccc(F)c(Cl)c4)c3c2)c(C)[nH]1` [Example 190, 8-chloro-4-(3-chloro-4-fluorophenylamino)-6-((2-ethyl-5-methyl-1H-imidazol-4-yl)methylamino)quinoline-3-carbonitrile]: 320 nM; for `Cc1nc(CNc2cc(Cl)c3ncc(C#N)c(Nc4ccc(F)c(Cl)c4)c3c2)cn1CC(N)=O` [Example 191, 2-(4-((8-chloro-4-(3-chloro-4-fluorophenylamino)-3-cyanoquinolin-6-ylamino)methyl)-2-methyl-1H-imidazol-1-yl)acetamide]: 64 nM.
The compound `Cc1cccc(CNc2cc(Cl)c3ncc(C#N)c(Nc4ccc(F)c(Cl)c4)c3c2)n1` [Example 192, 8-chloro-4-(3-chloro-4-fluorophenylamino)-6-((6-methylpyridin-2-yl)methylamino)quinoline-3-carbonitrile] gave an IC50 of 170 nM.
The same measure for `CCc1nc(CNc2cc(Cl)c3ncc(C#N)c(Nc4ccc(F)c(Cl)c4)c3c2)cn1CC(N)=O` [Example 193, 2-(4-((8-chloro-4-(3-chloro-4-fluorophenylamino)-3-cyanoquinolin-6-ylamino)methyl)-2-ethyl-1H-imidazol-1-yl)acetamide]: 410 nM; for `CCc1nc(CNc2cc(Cl)c3ncc(C#N)c(Nc4ccc(F)c(Cl)c4)c3c2)c(C)n1C(=O)OC(C)(C)C` [Example 194, tert-butyl 4-((8-chloro-4-(3-chloro-4-fluorophenylamino)-3-cyanoquinolin-6-ylamino)methyl)-2-ethyl-5-methyl-1H-imidazole-1-carboxylate]: 9700 nM.

These data come from US20060264460A1 (Wyeth, priority 2005, published 2006).
